This note sets out measurements from patent US20170129903A1, “COMPOUNDS COMPRISING 1,1a,2,5a-TETRAHYDROSPIRO[INDOLE-3,2a-PYRROLE]-2,5a-DIONE SYSTEM AS INHIBITORS P53-MDM2 PROTEIN-PROTEIN INTERACTION” (ADAMED SP. Z O.O., priority 2014, published 2017).

The experiment has as its target T1, p53-Mdm2 interaction (N-terminal domain of Mdm2 protein, amino acids 1-111) (Homo sapiens, UniProt Q00987).
T1 construct: N-terminal domain of Mdm2 protein (amino acids 1-111)
In words: Fluorescence polarization (FP) binding assay of p53-Mdm2 interaction. The note with it: for Ki: FP assay, 130 nM Mdm2, FAM-labelled p53 peptide, Ki transformed from IC50 using Kenakin equation. Here is the method: The inhibition of p53-Mdm2 interaction was measured using a fluorescence polarization (FP) binding assay. FP measures the rotational movement of molecules in a homogenous suspension. For this assay, N-terminal domain of Mdm2 protein (amino acids 1-111) is combined with a fluorescein-labelled (FAM) peptide derived from p53 trans-activation domain. Upon excitation of the fluorescent ligand with linearly polarized light, […]. If the peptide is bound by Mdm2, rotation will slow down and the perpendicular component will decrease. Disruption of the formation of the peptide-Mdm2 complex due to an inhibitor molecule binding to the p53 binding site of Mdm2 results in faster rotation of the peptide.
Fluorescence polarization experiments were read on Tecan Infinite M1000 reader with the 470 nm excitation and 520 nm emission filters for fluorescein. The fluorescence polarization was measured in black 96-well plates (Corning, CLS3991) in room temperature. Purity of Mdm2 was controlled at >95%. Reaction buffer was optimized by adding 5 mM DTT and 0.1% zwitterionic detergent CHAPS to reduce effect of nonspecific interactions.
The test was performed by combining successive dilution of compounds diluted in dimethyl sulfoxide (DMSO, 5% final concentration) with 130 nM Mdm2 in reaction buffer (PBS, 0.1% CHAPS, 5 mM DTT (dithiothreitol)). After 15 minutes of incubation in room temperature […] FAM-labelled peptide was added. Final reading was performed after 90 minutes of incubation. Dose-dependent binding curves and IC50 values were calculated using GraphPad Prism5 and next transformed to Ki values using Kenakin equation.
(Fluorescence polarisation rises when a labelled molecule tumbles more slowly, as on binding a larger partner.)

T1 sequence (Q00987 1-111): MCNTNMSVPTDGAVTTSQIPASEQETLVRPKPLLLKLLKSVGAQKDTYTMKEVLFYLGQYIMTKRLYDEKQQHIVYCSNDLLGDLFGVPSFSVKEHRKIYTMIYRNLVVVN

`COc1ccc(Cl)cc1N1C(=O)C(O)=C(C(=O)C2(C)CC2)C12C(=O)Nc1cc(Cl)ccc12` (centres unmarked) [Compound 7, 6-chloro-1′-(5-chloro-2-methoxyphenyl)-4′-hydroxy-3′-(1-methylcyclopropane-carbonyl)-1,1′,2,5′-tetrahydrospiro[indole-3,2′-pyrrole]-2,5′-dione] returned a Ki of 700 nM. On to `O=C1C(O)=C(c2ccccc2)C2(C(=O)Nc3cc(F)ccc32)N1c1cccc(Cl)c1` (centres unmarked) [Compound 42, 1′-(3-chlorophenyl)-6-fluoro-4′-hydroxy-3′-phenyl-1,1′,2,5′-tetrahydrospiro[indole-3,2′-pyrrole]-2,5′-dione], for which the Ki was found to be 90 nM. With `CC(C)c1[nH]nc2c1C1(C(=O)Nc3cc(Cl)ccc31)N(c1cncc(Cl)c1)C2=O` (centres unmarked) [Compound 83, 6-chloro-5′-(5-chloropyridin-3-yl)-3′-(propan-2-yl)-1,2,5′,6′-tetrahydro-2′H-spiro [indole-3,4′-pyrrolo[3,4-c]pyrazole]-2,6′-dione], the affinity corresponds to a Ki of 152 nM. Same read-out and setting: the result for `CC(C)OCC(C)(C)C(=O)C1=C(O)C(=O)N(c2cccc(Cl)c2)C12C(=O)Nc1cc(Cl)ccc12` (centres unmarked) [Compound 13, 6-chloro-1′-(3-chlorophenyl)-3′-[2,2-dimethyl-3-(propan-2-yloxy)propanoyl]-4′-hydroxy-1,1′,2,5′-tetrahydrospiro[indole-3,2′-pyrrole]-2,5′-dione] reads 196 nM; that for `O=C(O)CSC1=C(c2ccccc2)C2(C(=O)Nc3cc(Cl)ccc32)N(c2cccc(Cl)c2)C1=O` (centres unmarked) [Compound 51, 2-[6-chloro-1′-(3-chlorophenyl)-2,5′-dioxo-3′-phenyl-1,1′,2,5′-tetrahydrospiro [indole-3,2′-pyrrole]-4′-ylsulfanyl]acetic acid], 130 nM; that for `COc1ccc(Cl)cc1N1C(=O)C(O)=C(C(=O)C(C)C)C12C(=O)Nc1cc(Cl)ccc12` (centres unmarked) [Compound 10, 6-chloro-1′-(5-chloro-2-methoxyphenyl)-4′-hydroxy-3′-(iso-propanoyl)-1,1′,2,5′-tetrahydrospiro[indole-3,2′-pyrrole]-2,5′-dione], 610 nM. As to `CCC(C)SC1=C(O)C(=O)N(c2cccc(Cl)c2)C12C(=O)Nc1cc(Cl)ccc12` (centres unmarked) [Compound 57, 3′-(butan-2-ylsulfanyl)-6-chloro-1′-(3-chlorophenyl)-4′-hydroxy-1,1′,2,5′-tetrahydrospiro[indole-3,2′-pyrrole]-2,5′-dione], the Ki stood at 79 nM. For the compound `O=C(C1=C(O)C(=O)N(c2cccc(Cl)c2)C12C(=O)Nc1cc(Cl)ccc12)c1ccccc1` (centres unmarked) [Compound 3, 3′-benzoyl-6-chloro-1′-(3-chlorophenyl)-4′-hydroxy-1,1′,2,5′-tetrahydrospiro[indole-3,2′-pyrrole]-2,5′-dione], the affinity corresponds to a Ki of 51 nM. As to `COc1ccccc1-n1nc(C(C)C)c2c1C(=O)N(c1cc(Cl)ccc1C)C21C(=O)Nc2cc(Cl)ccc21` (centres unmarked) [Compound 32, 6-chloro-5′-(5-chloro-2-methylphenyl)-1′-(2-methoxyphenyl)-3′-(propan-2-yl)-1,2,5′,6′-tetrahydro-1′H-spiro[indole-3,4′-pyrrolo[3,4-c]pyrazole]-2,6′-dione], the affinity corresponds to a Ki of 1390 nM. `O=C1C(O)=C(c2ccccc2)C2(C(=O)Nc3ccccc32)N1c1cccc(Cl)c1` (centres unmarked) [Compound 39, 1′-(3-chlorophenyl)-4′-hydroxy-3′-phenyl-1,1′,2,5′-tetrahydrospiro[indole-3,2′-pyrrole]-2,5′-dione]: the Ki was 750 nM. Against the preceding compound, the Ki is about 1.9-fold lower. `CC(C)(C)CN1C(=O)C(O)=C(c2cccc(Cl)c2)C12C(=O)Nc1cc(Cl)ccc12` (centres unmarked) [Compound 36, 6-chloro-3′-(3-chlorophenyl)-1′-(2,2-dimethylpropyl)-4′-hydroxy-1,1′,2,5′-tetrahydrospiro[indole-3,2′-pyrrole]-2,5′-dione] came in with a Ki of 295 nM. As for `CC1(C(=O)C2=C(O)C(=O)N(c3cccc(Cl)c3)C23C(=O)Nc2cc(Cl)ccc23)CC1` (centres unmarked) [Compound 5, 6-chloro-1′-(3-chlorophenyl)-4′-hydroxy-3′-(1-methylcyclopropanecarbonyl)-1,1′,2,5′-tetrahydrospiro[indole-3,2′-pyrrole]-2,5′-dione], the Ki was 194 nM.

The compound `CC(C)(C)SC1=C(O)C(=O)N(c2cccc(Cl)c2)C12C(=O)Nc1cc(Cl)ccc12` (centres unmarked) [Compound 58, 3′-(tert-butylsulfanyl)-6-chloro-1′-(3-chlorophenyl)-4′-hydroxy-1,1′,2,5′-tetrahydrospiro[indole-3,2′-pyrrole]-2,5′-dione] had a Ki of 82 nM. Still for that read-out and setting: as for `CC(C)C(=O)C1=C(O)C(=O)N(c2cc(Cl)ccc2O)C12C(=O)Nc1cc(Cl)ccc12` (centres unmarked) [Compound 9, 6-chloro-1′-(5-chloro-2-hydroxyphenyl)-4′-hydroxy-3′-(iso-propanoyl)-1,1′,2,5′-tetrahydrospiro[indole-3,2′-pyrrole]-2,5′-dione], the figure is 268 nM. In turn, `O=C1C(O)=C(Sc2ccc(Cl)cc2)[C@@]2(C(=O)Nc3cc(Cl)ccc32)N1c1cccc(Cl)c1` [Compound 56, (3R)-6-chloro-1′-(3-chlorophenyl)-3′[(4-chlorophenyl)sulfanyl]-4′-hydroxy-1,1′,2,5′-tetrahydrospiro[indole-3,2′-pyrrole]-2,5′-dione] showed a Ki of 100 nM.

In turn, `COc1ccc(C(=O)O)cc1-n1nc2c(c1C(C)C)C1(C(=O)Nc3cc(Cl)ccc31)N(c1cc(Cl)ccc1O)C2=O` (centres unmarked) [Compound 76, 3-[6-chloro-5′-(5-chloro-2-hydroxy-phenyl)-2,6′-dioxo-3′-(propan-2-yl)-1,2,5′,6′-tetrahydro-2′H-spiro[indole-3,4′-pyrrolo[3,4-c]pyrazole]-2′-yl]-4-methoxybenzoic acid] came in with a Ki of 3.6 nM. For the compound `O=C1C(O)=C(c2ccccc2)C2(C(=O)Nc3ccc(Cl)cc32)N1c1cccc(Cl)c1` (centres unmarked) [Compound 38, 5-chloro-1′-(3-chlorophenyl)-4′-hydroxy-3′-phenyl-1,1′,2,5′-tetrahydrospiro[indole-3,2′-pyrrole]-2,5′-dione], the Ki came out at 550 nM. Compound `Cc1ccc(Cl)cc1N1C(=O)C(O)=C(C(=O)C2(C)CC2)C12C(=O)Nc1cc(Cl)ccc12` (centres unmarked) [Compound 2, 6-chloro-1′-(5-chloro-2-methylphenyl)-4′-hydroxy-3′-(1-methylcyclopropane-carbonyl)-1,1′,2,5′-tetrahydrospiro[indole-3,2′-pyrrole]-2,5′-dione] showed a Ki of 122 nM. As for `O=C1C(O)=C(c2cccc(Cl)c2)C2(C(=O)Nc3cc(Cl)ccc32)N1c1ccccc1` (centres unmarked) [Compound 37, 6-chloro-3′-(3-chlorophenyl)-4′-hydroxy-1′-phenyl-1,1′,2,5′-tetrahydrospiro[indole-3,2′-pyrrole]-2,5′-dione], affinity was put at a Ki of 190 nM.

`CC1(C(=O)C2=C(O)C(=O)N(c3cc(Cl)ccc3F)C23C(=O)Nc2cc(Cl)ccc23)CC1` (centres unmarked) [Compound 1, 6-chloro-1′-(5-chloro-2-fluorophenyl)-4′-hydroxy-3′-(1-methylcyclopropane-carbonyl)-1,1′,2,5′-tetrahydrospiro[indole-3,2′-pyrrole]-2,5′-dione] came in with a Ki of 354 nM. Against the preceding compound, the Ki is about 1.9-fold higher. For the compound `O=C1C(O)=C(Sc2ccc(Cl)cc2)[C@]2(C(=O)Nc3cc(Cl)ccc32)N1c1cccc(Cl)c1` [Compound 55, (3S)-6-chloro-1′-(3-chlorophenyl)-3′-[(4-chlorophenyl)sulfanyl]-4′-hydroxy-1,1′,2,5′-tetrahydrospiro[indole-3,2′-pyrrole]-2,5′-dione], the Ki came to 1910 nM. Besides, the “times less potent than Compound 56 (enantiomer)” value (G=S) is given as “about 19 times”. As to `COc1ccc(C(N)=O)cc1-n1nc2c(c1C(C)C)C1(C(=O)Nc3cc(Cl)ccc31)N(c1cc(Cl)ccc1O)C2=O` (centres unmarked) [Compound 75, 3-[6-chloro-5′-(5-chloro-2-hydroxy-phenyl)-2,6′-dioxo-3′-(propan-2-yl)-1,2,5′,6′-tetrahydro-2′H-spiro[indole-3,4′-pyrrolo[3,4-c]pyrazole]-2′-yl]-4-methoxybenzamide], affinity was put at a Ki of 3.6 nM. Still for that read-out and setting: the result for `CCOC(=O)/C=C/C(=O)Nc1cccc(C(=O)C2=C(O)C(=O)N(c3cccc(Cl)c3)C23C(=O)Nc2cc(Cl)ccc23)c1` (centres unmarked) [Compound 17, ethyl (2E)-3-[(3-{[6-chloro-1′-(3-chloro-phenyl)-4′-hydroxy-2,5′-dioxo-1,1′,2,5′-tetrahydrospiro[indole-3,2′-pyrrole]-3′-yl]carbonyl}phenyl)carbamoyl]prop-2-enoate] reads 57 nM; that for `CC(C)c1[nH]nc2c1C1(C(=O)Nc3cc(Cl)ccc31)N(c1cc(Cl)ccn1)C2=O` (centres unmarked) [Compound 82, 6-chloro-5′-(4-chloropyridin-2-yl)-3′-(propan-2-yl)-1,2,5′,6′-tetrahydro-2′H-spiro [indole-3,4′-pyrrolo[3,4-c]pyrazole]-2,6′-dione], 425 nM; that for `COc1ccccc1-n1nc2c(c1C(C)C)C1(C(=O)Nc3cc(Cl)ccc31)N(c1cc(Cl)c(=O)n(C)c1)C2=O` (centres unmarked) [Compound 63, 6-chloro-5′-(5-chloro-1-methyl-6-oxo-1,6-dihydropyridin-3-yl)-2′-(2-methoxy-phenyl)-3′-(propan-2-yl)-1,2,5′,6′-tetrahydro-2′H-spiro[indole-3,4′-pyrrolo [3,4-c]pyrazole]-2,6′-dione], 2.4 nM.

What is called Ki is the equilibrium dissociation constant of an inhibitor or competing ligand from its target. Higher therefore signals weaker binding.
